Measured values: US8242302B2, “Inhibitor of ischemic disorders” (Fukuoka University, priority 2007, dated 2012)

What was measured:
[1] = test system: middle cerebral artery (MCA) occlusion model mice; experiment: Evaluation of preventive effect on ischemia-reperfusion brain damage (MCA occlusion model, drug i.v. immediately before and 3 h after infarction); format: in vivo, male ddY mice; settings: 4 h MCA occlusion, infarct volume 24 h after start of occlusion (TTC)
Procedure: In addition, a drug was administered immediately before infarction and during infarction in the MCA occlusion model, and the effect as a preventive drug was also investigated.
(1) Evaluation Method for Preventive Effect of Ischemia-Reperfusion Brain Damage
With the use of male ddY mice (25-30 g, 6-7 weeks old), middle cerebral artery (MCA) occlusion model mice were prepared according to the method of Koizumi et al. (“Strokes”, Vol. 8, pp 1-8, 1986). The MCA occlusion was carried out for 4 hours, a test drug solution was intravenously administered twice, namely, immediately before infarction and 3 hours after infarction. Brain slice samples were prepared 24 hours after the start of infarction and stained with triphenyltetrazolium chloride (TTC staining), and then the cerebral infarct volume was measured from the brain slice samples by image processing.

[2] = test system: middle cerebral artery (MCA) occlusion model mice; experiment: Evaluation of therapeutic effect on ischemia-reperfusion brain damage (MCA occlusion model, single i.v. dose after reperfusion); format: in vivo, male ddY mice; settings: infarct volume at 24 h
Text: Thus, a model evaluated for therapeutic effect of ischemia-reperfusion brain damage was constructed by administering a drug after reperfusion in the MCA occlusion model, and the effect of the test compound as a therapeutic drug was investigated: the therapeutic effect evaluation model reflects the direct damage by reactive oxygen species (ROIs) and the process to the secondary oxidative stress and inflammatory response due to ROIs. (2) Evaluation Method for Therapeutic Effect of Ischemia-Reperfusion Brain Damage With the use of male ddY mice (25-30 g, 6-7 weeks old), middle cerebral artery (MCA) occlusion model mice were prepared according to the method of Koizumi et al. (“Strokes”, Vol. 8, pp 1-8, 1986). The MCA occlusion was 4 hours, and a single dose of drug solution was intravenously administered 6 or 10 hours after the start of ischemia (i.e., 2 hours or […]). Brain slice samples were prepared 24 hours after the start of infarction and stained with triphenyltetrazolium chloride (TTC staining), and then the cerebral infarct volume was measured from the brain slice samples by image processing.

[3] = test system: mouse middle cerebral artery (MCA) occlusion model; settings: i.v. twice, immediately before infarction and during infarction; prophylactic; cited from earlier work
[4] = single i.v. dose 20 μmol/kg 6 hours after start of ischemia
[5] = i.v. 20 mmol/kg×2 doses (so in the source)
[6] = single i.v. dose 2 μmol/kg 6 hours after start of ischemia

Molecule | suppression of the infarct volume ([1]; i.v. 2 μmol/kg×2 doses) | suppression of the infarct volume ([1]; i.v. 20 μmol/kg×2 doses) | suppression of the infarct volume [2, 4] | suppression of the infarct volume ([2]; single i.v. dose 20 μmol/kg 10 hours after start of ischemia) | suppression of the infarct volume [1, 5] | infarct inhibitory effect [3] | suppression of the infarct volume [2, 6]
CC(C)=CCC/C(C)=C/CC/C(C)=C/CO [FO, (2E,6E) farnesol, reference compound] | significant suppression of the infarct volume was not observed | significantly suppressed | – | – | – | – | –
CC(C)=CCCC(C)=CCCC(C)=CCOC(=O)CN(C)C.Cl [FODMG, farnesol N,N-dimethylglycinate hydrochloride] | significantly suppressed | – | significantly suppressed | significantly suppressed | significantly suppressed | – | –
Cc1c(C)c2c(c(C)c1O)CC[C@@](C)(CCC[C@H](C)CCC[C@H](C)CCCC(C)C)O2 [α-Toc, 2R-α-tocopherol, reference compound] | a significant suppression of the infarct volume was not observed | significantly suppressed | – | – | – | – | –
CC1=NN(c2ccccc2)C(=O)C1 [edaravone, reference compound] | significantly suppressed | a significant effect was not observed | – | – | – | – | –
CC(C)=CCC/C(C)=C/CC/C(C)=C/CC[C@]1(C)CCc2c(C)c(O)c(C)c(C)c2O1 [α-T3, 2R-α-tocotrienol] | – | – | – | – | – | excellent infarct inhibitory effect | –
2R-γ-tocopheryl phosphate disodium salt [γ-TPS] | – | – | a significant suppression of the infarct volume was observed | – | – | – | –
CC(C)=CCC/C(C)=C/CC/C(C)=C/CC[C@]1(C)CCc2c(C)c(OC(=O)CN(C)C)c(C)c(C)c2O1.Cl [α-T3DMG, 2R-α-tocotrienyl N,N-dimethylglycinate hydrochloride] | a significant suppression of the infarct volume was observed | a significant suppression of the infarct volume was observed | significantly suppressed | – | – | – | significantly suppressed
Cc1c(OC(=O)CN(C)C)cc2c(c1C)O[C@](C)(CCC[C@H](C)CCC[C@H](C)CCCC(C)C)CC2.Cl [γ-TDMG, 2R-γ-tocopheryl N,N-dimethylglycinate hydrochloride] | a significant suppression of the infarct volume was observed | – | significantly suppressed | – | a significant suppression of the infarct volume was observed | – | significantly suppressed
Cc1c(O)cc2c(c1C)O[C@](C)(CCC[C@H](C)CCC[C@H](C)CCCC(C)C)CC2 [γ-Toc, 2R-γ-tocopherol, reference compound] | significantly suppressed | significantly suppressed | significantly suppressed | – | – | excellent infarct inhibitory effect | significantly suppressed
